Experimental data as given in patent US11053204B2, “Pyrimidinyloxy benzene derivatives as herbicides” (FMC Corporation, priority 2015, dated 2021).

Key:
Format in all cases: in vivo
[1] = tested on: Italian ryegrass (Lolium multiflorum); assay: Test A preemergence, visual injury rating; settings: Lolium multiflorum, pre-emergence, 240 h, 0 to 100 scale (0 no effect, 100 complete control), read-out: Ryegrass, Italian plant response rating
Procedure, shortened: (§1)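 Compounds in non-phytotoxic solvent with surfactant applied as soil spray preemergence, or postemergence to plants 2-10 cm at one- to two-leaf stage, in loam/sand. After approximately 10 days in greenhouse, injury rated visually versus untreated controls, 0 (no effect) to 100 (complete control).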

[2] = tested on: barnyardgrass (Echinochloa crus-galli); assay: Test A preemergence, visual injury rating; settings: Echinochloa crus-galli, pre-emergence, 240 h, 0 to 100 scale (0 no effect, 100 complete control), read-out: Barnyardgrass plant response rating
Procedure, shortened: as §1

[3] = tested on: giant foxtail (Setaria faberii); assay: Test A preemergence, visual injury rating; settings: Setaria faberi, pre-emergence, 240 h, 0 to 100 scale (0 no effect, 100 complete control), read-out: Foxtail, Giant plant response rating
Procedure, shortened: as §1

[4] = tested on: ragweed (common ragweed, Ambrosia elatior); assay: Test A preemergence, visual injury rating; settings: Ambrosia artemisiifolia, pre-emergence, 240 h, 0 to 100 scale (0 no effect, 100 complete control), read-out: Ragweed plant response rating
Procedure, shortened: as §1

[5] = tested on: blackgrass (Alopecurus myosuroides); assay: Test C preemergence, plant response rating; settings: Alopecurus myosuroides, pre-emergence, Preemergence
Procedure, shortened: (§2)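 Greenhouse plants rated visually against untreated controls 13–15 d after treatment, scale 0 = no effect to 100 = complete control. Postemergence sprays went onto potted plants 2–18 cm tall (1–4 leaves); preemergence sprays onto soil freshly sown in loam–sand or silt loam, chemicals formulated in non-phytotoxic solvent with surfactant.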

corn (Zea mays) = assay: Test C preemergence, plant response rating; settings: Zea mays, pre-emergence, Preemergence
Procedure, shortened: as §2

[6] = tested on: crabgrass, large (large crabgrass, Digitaria sanguinalis); assay: Test C preemergence, plant response rating; settings: Digitaria sanguinalis, pre-emergence, Preemergence
Procedure, shortened: as §2

[7] = tested on: foxtail, giant (giant foxtail, Setaria faberii); assay: Test C preemergence, plant response rating; settings: Setaria faberi, pre-emergence, Preemergence
Procedure, shortened: as §2

[8] = tested on: lambsquarters (Chenopodium album); assay: Test C preemergence, plant response rating; settings: Chenopodium album, pre-emergence, Preemergence
Procedure, shortened: as §2

[9] = tested on: morningglory (Ipomoea coccinea); assay: Test C preemergence, plant response rating; settings: Ipomoea, pre-emergence, Preemergence
Procedure, shortened: as §2

[10] = tested on: nutsedge, yellow (yellow nutsedge, Cyperus esculentus); assay: Test C preemergence, plant response rating; settings: Cyperus, pre-emergence, Preemergence
Procedure, shortened: as §2

[11] = tested on: oilseed rape (Brassica napus); assay: Test C preemergence, plant response rating; settings: Brassica napus, pre-emergence, Preemergence
Procedure, shortened: as §2

[12] = tested on: ragweed (common ragweed, Ambrosia elatior); assay: Test C preemergence, plant response rating; settings: Ambrosia artemisiifolia, pre-emergence, Preemergence
Procedure, shortened: as §2

[13] = tested on: ryegrass, Italian (Italian ryegrass, Lolium multiflorum); assay: Test C preemergence, plant response rating; settings: Lolium multiflorum, pre-emergence, Preemergence
Procedure, shortened: as §2

soybean (Glycine max) = assay: Test C preemergence, plant response rating; settings: Glycine max, pre-emergence, Preemergence
Procedure, shortened: as §2

[14] = tested on: velvetleaf (Abutilon theophrasti); assay: Test C preemergence, plant response rating; settings: Abutilon theophrasti, pre-emergence, Preemergence
Procedure, shortened: as §2

[15] = tested on: waterhemp (common waterhemp, Amaranthus rudis); assay: Test C preemergence, plant response rating; settings: Amaranthus tuberculatus, pre-emergence, Preemergence
Procedure, shortened: as §2

[16] = tested on: wheat (winter wheat, Triticum aestivum); assay: Test C preemergence, plant response rating; settings: Triticum aestivum, pre-emergence, Preemergence
Procedure, shortened: as §2

`C=CCCOC(=O)c1c(Br)cccc1Oc1ncc(Cl)cn1` [Compound 21, 3-buten-1-yl 2-bromo-6-[(5-chloro-2-pyrimidinyl)oxy]benzoate] was tested, and the pest or weed control at 125 g/ha ([1]; 125 g ai/ha) was 30%, the pest or weed control at 500 g/ha ([1]; 500 g ai/ha) was 90% and the pest or weed control at 125 g/ha ([2]; 125 g ai/ha) was 100%. It also gave a pest or weed control at 500 g/ha ([2]; 500 g ai/ha) of 100%, a pest or weed control at 125 g/ha ([3]; 125 g ai/ha) of 100% and a pest or weed control at 500 g/ha ([3]; 500 g ai/ha) of 100%. It also gave a pest or weed control at 125 g/ha ([4]; 125 g ai/ha) of 0%, a pest or weed control at 500 g/ha ([4]; 500 g ai/ha) of 0% and a pest or weed control at 62 g/ha ([5]; 62 g ai/ha, scale of 0 to 100) of 55%. It also gave a pest or weed control at 125 g/ha ([5]; 125 g ai/ha, scale of 0 to 100) of 90%, a pest or weed control at 16 g/ha ([5]; 16 g ai/ha, scale 0 to 100) of 5% and a pest or weed control at 31 g/ha ([5]; 31 g ai/ha, scale 0 to 100) of 35%. The Corn plant response rating (crop injury, 0 = no effect, 100 = complete kill) at 62 g/ha (corn (Zea mays); 62 g ai/ha, scale of 0 to 100) was 5%, the Corn plant response rating (crop injury, 0 = no effect, 100 = complete kill) at 125 g/ha (corn (Zea mays); 125 g ai/ha, scale of 0 to 100) was 20% and the Corn plant response rating (crop injury, 0 = no effect, 100 = complete kill) at 16 g/ha (corn (Zea mays); 16 g ai/ha, scale 0 to 100) was 0%. It also gave a Corn plant response rating (crop injury, 0 = no effect, 100 = complete kill) at 31 g/ha (corn (Zea mays); 31 g ai/ha, scale 0 to 100) of 0%, a pest or weed control at 62 g/ha ([6]; 62 g ai/ha, scale of 0 to 100) of 98% and a pest or weed control at 125 g/ha ([6]; 125 g ai/ha, scale of 0 to 100) of 100%. The pest or weed control at 16 g/ha ([6]; 16 g ai/ha, scale 0 to 100) was 20%, the pest or weed control at 31 g/ha ([6]; 31 g ai/ha, scale 0 to 100) was 75% and the pest or weed control at 62 g/ha ([7]; 62 g ai/ha, scale of 0 to 100) was 95%. It also gave a pest or weed control at 125 g/ha ([7]; 125 g ai/ha, scale of 0 to 100) of 90%, a pest or weed control at 16 g/ha ([7]; 16 g ai/ha, scale 0 to 100) of 20% and a pest or weed control at 31 g/ha ([7]; 31 g ai/ha, scale 0 to 100) of 80%. It also gave a pest or weed control at 125 g/ha ([8]; 125 g ai/ha, scale of 0 to 100) of 70%, a pest or weed control at 16 g/ha ([8]; 16 g ai/ha, scale 0 to 100) of 0% and a pest or weed control at 31 g/ha ([8]; 31 g ai/ha, scale 0 to 100) of 30%. For the same molecule, the pest or weed control at 62 g/ha ([8]; 62 g ai/ha, scale 0 to 100) was 25%, the pest or weed control at 125 g/ha ([9]; 125 g ai/ha, scale of 0 to 100) was 10% and the pest or weed control at 16 g/ha ([9]; 16 g ai/ha, scale 0 to 100) was 0%. For the same molecule, the pest or weed control at 31 g/ha ([9]; 31 g ai/ha, scale 0 to 100) was 0%, the pest or weed control at 62 g/ha ([9]; 62 g ai/ha, scale 0 to 100) was 5% and the pest or weed control at 125 g/ha ([10]; 125 g ai/ha, scale of 0 to 100) was 0%. For the same molecule, the pest or weed control at 16 g/ha ([10]; 16 g ai/ha, scale 0 to 100) was 0%, the pest or weed control at 31 g/ha ([10]; 31 g ai/ha, scale 0 to 100) was 0% and the pest or weed control at 62 g/ha ([10]; 62 g ai/ha, scale 0 to 100) was 0%. For the same molecule, the plant injury at 125 g/ha ([11]; 125 g ai/ha, scale of 0 to 100) was 100%, the plant injury at 16 g/ha ([11]; 16 g ai/ha, scale 0 to 100) was 0% and the plant injury at 31 g/ha ([11]; 31 g ai/ha, scale 0 to 100) was 0%. For the same molecule, the plant injury at 62 g/ha ([11]; 62 g ai/ha, scale 0 to 100) was 75%, the pest or weed control at 125 g/ha ([12]; 125 g ai/ha, scale of 0 to 100) was 0% and the pest or weed control at 16 g/ha ([12]; 16 g ai/ha, scale 0 to 100) was 0%. The pest or weed control at 31 g/ha ([12]; 31 g ai/ha, scale 0 to 100) was 0%, the pest or weed control at 62 g/ha ([12]; 62 g ai/ha, scale 0 to 100) was 0% and the pest or weed control at 125 g/ha ([13]; 125 g ai/ha, scale of 0 to 100) was 90%. For the same molecule, the pest or weed control at 16 g/ha ([13]; 16 g ai/ha, scale 0 to 100) was 0%, the pest or weed control at 31 g/ha ([13]; 31 g ai/ha, scale 0 to 100) was 10% and the pest or weed control at 62 g/ha ([13]; 62 g ai/ha, scale 0 to 100) was 15%. For the same molecule, the plant injury at 125 g/ha (soybean (Glycine max); 125 g ai/ha, scale of 0 to 100) was 0%, the plant injury at 16 g/ha (soybean (Glycine max); 16 g ai/ha, scale 0 to 100) was 0% and the plant injury at 31 g/ha (soybean (Glycine max); 31 g ai/ha, scale 0 to 100) was 0%. The plant injury at 62 g/ha (soybean (Glycine max); 62 g ai/ha, scale 0 to 100) was 0%, the pest or weed control at 125 g/ha ([14]; 125 g ai/ha, scale of 0 to 100) was 100% and the pest or weed control at 16 g/ha ([14]; 16 g ai/ha, scale 0 to 100) was 10%. The pest or weed control at 31 g/ha ([14]; 31 g ai/ha, scale 0 to 100) was 40%, the pest or weed control at 62 g/ha ([14]; 62 g ai/ha, scale 0 to 100) was 70% and the pest or weed control at 125 g/ha ([15]; 125 g ai/ha, scale of 0 to 100) was 98%. It also gave a pest or weed control at 16 g/ha ([15]; 16 g ai/ha, scale 0 to 100) of 70%, a pest or weed control at 31 g/ha ([15]; 31 g ai/ha, scale 0 to 100) of 75% and a pest or weed control at 62 g/ha ([15]; 62 g ai/ha, scale 0 to 100) of 95%. It also gave a plant injury at 125 g/ha ([16]; 125 g ai/ha, scale of 0 to 100) of 0%, a plant injury at 16 g/ha ([16]; 16 g ai/ha, scale 0 to 100) of 0% and a plant injury at 31 g/ha ([16]; 31 g ai/ha, scale 0 to 100) of 0%. It also gave a plant injury at 62 g/ha ([16]; 62 g ai/ha, scale 0 to 100) of 0%.
